{
  "source": "patent US10532040B2",
  "about": "“Methods of treating cancer with herbacetin” (REGENTS OF THE UNIVERSITY OF MINNESOTA, priority 2011, dated 2020)",
  "molecular_target": "T1, ODC (Homo sapiens, UniProt P11926)",
  "T1 sequence (P11926 1-461)": "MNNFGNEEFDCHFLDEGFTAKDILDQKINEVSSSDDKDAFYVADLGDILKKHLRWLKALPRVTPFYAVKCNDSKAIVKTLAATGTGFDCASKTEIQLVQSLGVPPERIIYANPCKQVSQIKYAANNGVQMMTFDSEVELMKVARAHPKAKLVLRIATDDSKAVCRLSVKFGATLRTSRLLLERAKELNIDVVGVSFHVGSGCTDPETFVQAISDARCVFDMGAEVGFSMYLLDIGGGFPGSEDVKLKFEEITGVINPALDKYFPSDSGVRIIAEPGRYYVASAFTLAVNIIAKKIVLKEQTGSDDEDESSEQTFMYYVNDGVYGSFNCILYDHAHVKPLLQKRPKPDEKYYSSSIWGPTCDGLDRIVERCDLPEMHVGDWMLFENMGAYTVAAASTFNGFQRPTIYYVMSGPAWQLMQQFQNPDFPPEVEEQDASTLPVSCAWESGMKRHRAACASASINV",
  "assay": "ODC enzyme assay with recombinant ODC protein",
  "assay_type": "biochemical",
  "conditions": "in vitro",
  "protocol": "FIGS. 5A-5E. The effect of herbacetin on ODC activity was assessed in (a) DLD-1 and (b) HCT116 colon cancer cells. Cell lysates were incubated for 15 min with reaction buffer and different doses of herbacetin or DFMO and then incubated at 37° C. for 1 h. Herbacetin (c) and kaempferol (d) were modeled as allosteric inhibitors with the ODC crystal structure. (e) The effect of herbacetin or kaempferol on ODC activity was assessed using a human ODC recombinant protein. Each reaction was incubated at 37° C. for 1 h and ODC activity was measured as the release of CO2 from L-[1-C^14] ornithine. Data are represented as means±S.D. of triplicate values. The asterisk (*) indicates a significant difference (p<0.05) between herbacetin-treated samples compared to untreated or kaempferol-treated samples.\nODC activity was measured as the release of CO2 from L-[1-C^14] ornithine as previously described ([…]).",
  "data": [
    {"compound": "O=c1c(O)c(-c2ccc(O)cc2)oc2cc(O)cc(O)c12", "note": "[kaempferol, reference compound]", "values": [
      {"measurement": "ODC activity (release of CO2 from L-[1-C^14] ornithine)", "value": "little effect"}
    ]}
  ]
}
